We go through two compounds from patent US11718637B2, “Prodrugs of 4′-C-substituted-2-halo-2′- deoxyadenosine nucleosides and methods of making and using the same” (Gilead Sciences, Inc., priority 2020, dated 2023).

In brackets after ≈: the same amount, converted by molar mass.

The subject of data set [1] is HIV-1 (IIIB). Description: Antiviral assay in MT-4 cells. As to conditions: Human immunodeficiency virus 1, MT4, 120 h; HIV-1 IIIB replication in MT-4 cells, 5 days incubation, Cell Titer Glo; read-out: EC50. Format: cell-based. The procedure:
(§1) Compounds were tested in a high-throughput 384-well assay format for their ability to inhibit the replication of HIV-1 (IIIB) in MT-4 cells. Compounds were serially diluted (1:3) in DMSO on 384-well polypropylene plates and further diluted 200-fold into complete RPMI media (10% FBS, 1% P/S) using the Biotek Micro Flow and Labcyte ECHO acoustic dispenser. Each plate contained up to 8 test compounds, with negative (No Drug Control) and 5 μM AZT positive controls. MT-4 cells were pre-infected with 10 μL of either RPMI (mock-infected) or a fresh 1:250 dilution of HIV-1 IIIB concentrated virus stock. Infected and uninfected MT-4 cells were further diluted in complete RPMI media and added to each plate using a Micro Flow dispenser. After 5 days incubation in a humidified and temperature-controlled incubator (37° C.), Cell Titer Glo (Promega) was added to the assay plates and chemiluminescence read using an Envision plate-reader. EC50 values were defined as the compound concentration that causes a 50% decrease in luminescence signal, and were calculated using a sigmoidal dose-response model to generate curve fits.

A short description of data set [2]: Kinetic solubility analysis (CLND). The settings on record: 24.2 °C, kinetic from dmso stock, from DMSO stocks, 1.0% DMSO, 24-hour incubation at ambient temperature, medium (0.1N HCl or PBS 7.4) not stated. It counts as physicochemical. The procedure:
Kinetic Solubility Analysis (CLND)
0.1N HCl: Hydrochloric acid, 0.1N standardized solution.
1×PBS, 7.4: Phosphate Buffered Saline solution 10×, PBS 50 mL was added to approximately 450 mL HPLC grade H2O. The volume of the solution was then adjusted to 500 mL for a total dilution factor of 1:10 and a final PBS concentration of 1×. The pH of the final solution was measured and found to be 7.4.
Kinetic Solubility from DMSO Stocks: 100-fold dilutions of each DMSO stock solution were prepared in singleton by combining 3 μL of DMSO stock with 297 μL of the appropriate media in a Millipore solubility filter plate with a […] polycarbonate filter membrane using Hamilton Starlet liquid handling. The final DMSO concentration is 1.0% and maximum theoretical compound concentration is 100 μM (assuming stock concentration of 10 mM). The filter plate was sealed. Following 24-hour incubation at ambient temperature (24.2-27.5° C.), the samples were vacuum filtered and the filtrates were collected in a 96 well polypropylene plate for analysis. The collection plate was sealed for analysis.
Filtrates were injected into the nitrogen detector for quantification. The results are reported here in μM.
Calculation of Results: The equimolar nitrogen response of the detector was calibrated using standards which spanned the dynamic range of the instrument from […] nitrogen. The filtrates were quantified with respect to this calibration curve. The calculated solubility values were corrected for background nitrogen present in the DMSO and the media used to prepare the samples. All reported values for compounds containing adjacent nitrogen atoms in a ring structure should be increased by ˜25%. […] The solubility results presented assume that the samples were free of nitrogen containing impurities and were stable under the assay conditions.

Data set [3] is described as follows: Cytotoxicity assay in MT-4 cells. Format: cell-based. As to conditions: human; uninfected MT-4 cells, 5 days incubation, Cell Titer Glo. The procedure:
as §1, with “fits. Assays were performed as above except uninfected MT-4 cells were added to each well containing test compound. In addition, 10 μM puromycin was added to the last column of each assay plate to assess a base level of cytotoxicity.” for “fits.”

Regarding `C#C[C@]1(COC(=O)CCCCCC)O[C@@H](n2cnc3c(N)nc(F)nc32)C[C@@H]1OC(=O)CCCCCC` [Compound 17, (2R,3S,5R)-5-(6-amino-2-fluoro-9H-purin-9-yl)-2-ethynyl-2-((heptanoyloxy)methyl)tetrahydrofuran-3-yl heptanoate], in data set [1], the EC50 is 7 nM. The same compound returned a solubility (kinetic) at 24 h in data set [2] of less than 1 µM. Besides, the CC50 at 5 days in data set [3] is more than 20900 nM.
With `C#C[C@]1(COC(=O)CCCCCC)O[C@@H](n2cnc3c(NC(=O)CCCCCC)nc(F)nc32)C[C@@H]1OC(=O)CCCCCC` [Compound 18, (2R,3S,5R)-2-ethynyl-5-(2-fluoro-6-heptanamido-9H-purin-9-yl)-2-((heptanoyloxy)methyl)tetrahydrofuran-3-yl heptanoate-3-yl 2-((palmitoyloxy)methyl)benzoate], the EC50 in data set [1] came to 20 nM. The compound further showed a solubility (kinetic) at 24 h in data set [2] of 1.5 µM (≈ 0.945 µg/mL). Further, the CC50 at 5 days in data set [3] is more than 10100 nM.
